“Also recorded” adds a separate entry of the source. Each block holds one compound with its values, some of them ahead of it.
Assays:
Type in all cases: physicochemical
[1] = Stability under high temperature, high humidity, illumination (influencing factors); details: for stability under illumination conditions (conclusion): illumination 4500±500 Lux; for changes in the appearance: illumination, high temperature (60° C.) and high humidity (25° C., RH75%) for 10 days
Method: Appropriate amount of the samples of the crystal form I of the morpholino quinazoline compound represented by formula A were placed on culture dishes which were then left open under high temperature (40±2° C. and 60±2° C.), high humidity (25° C., RH75±5% and RH90±5%) and illumination (4500±500 Lux, 25° C.) conditions, respectively.
Appropriate amount of the samples of the amorphous form of the morpholino quinazoline compound represented by formula A and the samples of the crystal form II of the morpholino quinazoline compound represented by formula A were placed on culture dishes respectively, which were then left open under high temperature (60±2° C.), high humidity (25° C., RH75±5%) and illumination (4500±500 Lux, 25° C.) conditions, respectively.

[2] = Dynamic vapor sorption analysis (DVS); details: for increase by mass compared to the initial mass (DVS weight gain): relative humidity from 0% to 95%
Method: (§1) Dynamic vapor sorption analysis (DVS): about 10 mg of the sample was taken and dried for 60 minutes under a temperature set at 25° C. and a humidity of 0% RH, and then the moisture sorption characteristics of the sample when the humidity changed from 0% RH to 95% RH was tested, and the moisture desorption characteristics of the sample when the humidity changed from 95% RH to 0% RH was tested; the humidity change step was 5% RH; the value of the mass change rate dm/dt less than 0.002% was considered as balance equilibrium, the rate of mass change within 5 minutes less than 0.01%/minute was considered as the equilibrium standard in the testing process, and the maximum equilibrium time was 2 hours. The isothermal water adsorption/desorption characteristics under this test condition were determined and XRPD detection was performed on the samples after the DVS test.
as §1, with “About” for “Dynamic vapor sorption analysis (DVS): about”

[3] = Stability of crystal form in water and organic solvents at room temperature for 10 days (suspension, XRPD)
Method: About 20 mg of solid samples of the crystal form I of the morpholino quinazoline compound represented by formula A were weighed respectively and placed into vials, 1 mL of water or organic solvent was added to the vials respectively, and sonicated for 5 min to obtain suspensions. The suspensions were spun at room temperature for 10 days and the filtered wet samples were characterized by XRPD.

[4] = Stability in organic solvents with slurrying at high temperature for 18 hours (XRPD); details: slurried in ethanol, isopropanol and n-heptane at 80° C. for 18 hours
Method: To 5 g of the crystal form I of the morpholino quinazoline compound represented by formula A was added 10 g of ethanol, 10 g of isopropanol, and 10 g of n-heptane. The mixture was slurried at 80° C. for 18 hours, cooled to room temperature, filtered, and dried under vacuum at less than 85° C. for 16 hours to obtain about 4 g of sample.

[5] = high temperature (60° C.) and high humidity (25° C., RH75%)
[6] = illumination 4500 Lux ± 500 Lux, 25° C., 5 days
[7] = illumination 4500 Lux ± 500 Lux, 25° C., 10 days
[8] = illumination (4500±500 Lux, 25° C.)
[9] = illumination 4500 Lux ± 500 Lux, 25° C., 1 month

Content (%) ([1]; 0 day): 96.65%
Total impurities (%) ([1]; 0 day): 3.28%
Total impurities (%) ([1]; 25° C., RH 75 ± 5%, 5 days): 3.18%
Total impurities (%) ([1]; 25° C., RH 75 ± 5%, 10 days): 3.61%
Content (%) ([1]; 60° C., 5 days): 95.85%
Content (%) ([1]; 60° C., 10 days): 97.0%
Total impurities (%) ([1]; 60 ± 2° C., 5 days): 4.04%
Total impurities (%) ([1]; 60 ± 2° C., 10 days): 2.97%
Content (%) ([1]; 75% RH (25° C.), 5 days): 96.75%
Content (%) ([1]; 75% RH (25° C.), 10 days): 96.24%
change of total impurities content [1, 5]: increases slightly
Content (%) [1, 6]: 96.26%
Total impurities (%) [1, 6]: 3.64%
Content (%) [1, 7]: 95.80%
Total impurities (%) [1, 7]: 4.14%
stability under illumination conditions (conclusion) ([1]; 25° C.): unstable
change of total impurities content [1, 8]: increases significantly
changes in the appearance [1]: no significant changes
increase by mass compared to the initial mass (DVS weight gain) ([2]; 25° C.): 6.237%
increase by mass compared to the initial mass (DVS weight gain) ([2]; 25° C., listed as crystal type II): 6.237%
weight gain of crystal form II relative to that of crystal form I ([2]; relative humidity from 0 to 95%): 18 times
Compound: COc1ncc(-c2nc(N3CCOCC3)nc3c(CN4CCC(C(C)(C)O)CC4)cc(F)cc23)cc1NS(C)(=O)=O [Crystal form II]

Content (%) ([1]; 0 day): 98.60%
Total impurities (%) ([1]; 0 day): 1.32%
Total impurities (%) ([1]; 25° C., RH 75 ± 5%, 5 days): 1.37%
Total impurities (%) ([1]; 25° C., RH 75 ± 5%, 10 days): 1.31%
Content (%) ([1]; 60° C., 5 days): 98.43%
Content (%) ([1]; 60° C., 10 days): 98.48%
Total impurities (%) ([1]; 60 ± 2° C., 5 days): 1.54%
Total impurities (%) ([1]; 60 ± 2° C., 10 days): 1.46%
Content (%) ([1]; 75% RH (25° C.), 5 days): 98.51%
Content (%) ([1]; 75% RH (25° C.), 10 days): 98.62%
change of total impurities content [1, 5]: increases slightly
Content (%) [1, 6]: 98.29%
Total impurities (%) [1, 6]: 1.68%
Content (%) [1, 7]: 97.80%
Total impurities (%) [1, 7]: 2.16%
stability under illumination conditions (conclusion) ([1]; 25° C.): unstable
change of total impurities content [1, 8]: increases significantly
changes in the appearance [1]: no significant changes
Compound: COc1ncc(-c2nc(N3CCOCC3)nc3c(CN4CCC(C(C)(C)O)CC4)cc(F)cc23)cc1NS(C)(=O)=O [Amorphous form]

stability in water and organic solvents (conclusion) ([3]; room temperature and high temperature): good stability
crystal form of filtered wet sample by XRPD ([3]; suspension in water or organic solvents, room temperature, 10 days): did not change
X-ray powder diffraction pattern versus crystal form I of Example 1 [4]: consistent
stability under high temperature, high humidity and illumination conditions (conclusion) [1]: good stability
Moisture (%) ([1]; 0 day): 0.07%
Total impurities (%) ([1]; 0 day): 0.1%
Moisture (%) ([1]; 25° C., RH 75 ± 5%, 1 month): 0.1%
Total impurities (%) ([1]; 25° C., RH 75 ± 5%, 1 month): 0.1%
Moisture (%) ([1]; 25° C., RH 75 ± 5%, 5 days): 0.1%
Total impurities (%) ([1]; 25° C., RH 75 ± 5%, 5 days): 0.1%
Moisture (%) ([1]; 25° C., RH 75 ± 5%, 10 days): 0.2%
Total impurities (%) ([1]; 25° C., RH 75 ± 5%, 10 days): 0.1%
Moisture (%) ([1]; 25° C., RH 90 ± 5%, 1 month): 0.1%
Total impurities (%) ([1]; 25° C., RH 90 ± 5%, 1 month): 0.1%
Moisture (%) ([1]; 25° C., RH 90 ± 5%, 5 days): 0.2%
Total impurities (%) ([1]; 25° C., RH 90 ± 5%, 5 days): 0.1%
Moisture (%) ([1]; 25° C., RH 90 ± 5%, 10 days): 0.2%
Total impurities (%) ([1]; 25° C., RH 90 ± 5%, 10 days): 0.1%
Moisture (%) ([1]; 40 ± 2° C., 1 month): 0.1%
Total impurities (%) ([1]; 40 ± 2° C., 1 month): 0.1%
Moisture (%) ([1]; 40 ± 2° C., 5 days): 0.1%
Total impurities (%) ([1]; 40 ± 2° C., 5 days): 0.1%
Moisture (%) ([1]; 40 ± 2° C., 10 days): 0.2%
Total impurities (%) ([1]; 40 ± 2° C., 10 days): 0.1%
Moisture (%) ([1]; 60 ± 2° C., 1 month): 0.1%
Total impurities (%) ([1]; 60 ± 2° C., 1 month): 0.1%
Moisture (%) ([1]; 60 ± 2° C., 5 days): 0.2%
Total impurities (%) ([1]; 60 ± 2° C., 5 days): 0.1%
Moisture (%) ([1]; 60 ± 2° C., 10 days): 0.2%
Total impurities (%) ([1]; 60 ± 2° C., 10 days): 0.1%
Moisture (%) [1, 9]: 0.1%
Total impurities (%) [1, 9]: 0.2%
Moisture (%) [1, 6]: 0.1%
Total impurities (%) [1, 6]: 0.1%
Moisture (%) [1, 7]: 0.1%
Total impurities (%) [1, 7]: 0.1%
increase by mass compared to the initial mass (DVS weight gain) ([2]; 25° C.): 0.34%
increase by mass compared to the initial mass (DVS) ([2]; relative humidity from 0 to 90%, 25° C.): 0.23%
Compound: COc1ncc(-c2nc(N3CCOCC3)nc3c(CN4CCC(C(C)(C)O)CC4)cc(F)cc23)cc1NS(C)(=O)=O [Crystal form I]
hygroscopicity (conclusion) [2]: less hygroscopicity; also recorded: very low hygroscopicity
